# Laboratory results reported in ChEMBL document CHEMBL1138610, “Peganine hydrochloride dihydrate an orally active antileishmanial agent” (Bioorg Med Chem Lett, 2009).
# Activity calls are given as the source filed them. The rule behind the calls is not given here.
# Experiments:
# Leishmania donovani [1] = experiment: Antileishmanial activity against Leishmania donovani amastigote infected in mouse J774A1 cells expressing green fluorescence protein by flow cytometry; assay type: functional, organism-based; conditions: J774.A1
# Leishmania donovani [2] = experiment: Antileishmanial activity against Leishmania donovani promastigotes assessed as inhibition of parasite multiplication at 10 ug/ml; assay type: functional; design: scale not given: the % may be the effect or the level left
# Leishmania donovani [3] = experiment: Antileishmanial activity against Leishmania donovani amastigote infected in mouse J774A1 cells expressing green fluorescence protein assessed as decrease in mean fluorescence intensity up to 25 ug/ml; assay type: functional, organism-based; conditions: J774.A1
# J774.A1 = experiment: Cytotoxicity against mouse J774A1 cells at 200 uM after 48 hrs by MTT assay; assay type: cell-based; conditions: j774.a1, 48 h
# Leishmania donovani [4] = experiment: Antileishmanial activity against Leishmania donovani infected in hamster assessed inhibition of parasite growth at 50 mg/kg, po after 5 days; assay type: functional, organism-based; design: dose 50 mg/kg
# Leishmania donovani [5] = experiment: Antileishmanial activity against Leishmania donovani infected in hamster assessed inhibition of parasite growth at 100 mg/kg, po after 5 days; assay type: functional; design: scale not given: the % may be the effect or the level left
# Leishmania donovani [6] = experiment: Antileishmanial activity against Leishmania donovani infected in hamster assessed inhibition of parasite growth at 40 mg/kg, po after 5 days; assay type: functional; design: scale not given: the % may be the effect or the level left
# Leishmania donovani [7] = experiment: Antileishmanial activity against Leishmania donovani promastigotes expressing green fluorescence protein assessed as decrease in mean fluorescence intensity; assay type: functional, organism-based
# Leishmania donovani [8] = experiment: Antileishmanial activity against Leishmania donovani infected in hamster assessed inhibition of parasite growth at 200 mg/kg, po after 5 days; assay type: functional; design: scale not given: the % may be the effect or the level left
# Leishmania donovani [9] = experiment: Antileishmanial activity against Leishmania donovani promastigotes expressing green fluorescence protein by flow cytometry; assay type: functional
# Leishmania donovani [10] = experiment: Antileishmanial activity against Leishmania donovani amastigote infected in mouse J774A1 cells expressing green fluorescence protein assessed as decrease in mean fluorescence intensity at 30 to 100 ug/ml; assay type: functional, organism-based; conditions: J774.A1
IC50 (Leishmania donovani [1]) [µg/mL],IC50 (Leishmania donovani [7]) [µg/mL],IC90 (Leishmania donovani [7]) [µg/mL],IC90 (Leishmania donovani [1]) [µg/mL],Structure (SMILES),Activity (Leishmania donovani [2]) [%],Activity (Leishmania donovani [3]),Activity (J774.A1),Activity (Leishmania donovani [4]),Activity (Leishmania donovani [5]) [%],Activity (Leishmania donovani [6]) [%],Activity (Leishmania donovani [7]),Activity (Leishmania donovani [8]) [%],Activity (Leishmania donovani [9]) [%],Activity (Leishmania donovani [10])
5,,,,CCCCCCCCCCCCCCCCOP(=O)([O-])OCC[N+](C)(C)C [MILTEFOSINE],50,,,,,,,,,
41,38,75,85,Cl.OC1CCN2Cc3ccccc3N=C12 (stereo not given) [PEGANINE HYDROCHLORIDE],,Active,Non-toxic,inactive,79.6,95.5,Dose-dependent effect,87.5,50,Active
